Assay results as given in patent publication US20250145599A1, “CERTAIN CHEMICAL ENTITIES, COMPOSITIONS, AND METHODS” (Retune Pharma Inc., priority 2022, published 2025).

Experiments:
[1] = system: metastatic pancreatic cancer; conditions: clinical trials, incl. metastatic pancreatic cancer; cited from earlier work
tumor cell lines = conditions: variety of tumor cell lines; cited from earlier work
IGF-1R [2] = biological target: T1, IGF-1R (Homo sapiens, UniProt P08069); conditions: cited from earlier work
T1 sequence (P08069 31-1367): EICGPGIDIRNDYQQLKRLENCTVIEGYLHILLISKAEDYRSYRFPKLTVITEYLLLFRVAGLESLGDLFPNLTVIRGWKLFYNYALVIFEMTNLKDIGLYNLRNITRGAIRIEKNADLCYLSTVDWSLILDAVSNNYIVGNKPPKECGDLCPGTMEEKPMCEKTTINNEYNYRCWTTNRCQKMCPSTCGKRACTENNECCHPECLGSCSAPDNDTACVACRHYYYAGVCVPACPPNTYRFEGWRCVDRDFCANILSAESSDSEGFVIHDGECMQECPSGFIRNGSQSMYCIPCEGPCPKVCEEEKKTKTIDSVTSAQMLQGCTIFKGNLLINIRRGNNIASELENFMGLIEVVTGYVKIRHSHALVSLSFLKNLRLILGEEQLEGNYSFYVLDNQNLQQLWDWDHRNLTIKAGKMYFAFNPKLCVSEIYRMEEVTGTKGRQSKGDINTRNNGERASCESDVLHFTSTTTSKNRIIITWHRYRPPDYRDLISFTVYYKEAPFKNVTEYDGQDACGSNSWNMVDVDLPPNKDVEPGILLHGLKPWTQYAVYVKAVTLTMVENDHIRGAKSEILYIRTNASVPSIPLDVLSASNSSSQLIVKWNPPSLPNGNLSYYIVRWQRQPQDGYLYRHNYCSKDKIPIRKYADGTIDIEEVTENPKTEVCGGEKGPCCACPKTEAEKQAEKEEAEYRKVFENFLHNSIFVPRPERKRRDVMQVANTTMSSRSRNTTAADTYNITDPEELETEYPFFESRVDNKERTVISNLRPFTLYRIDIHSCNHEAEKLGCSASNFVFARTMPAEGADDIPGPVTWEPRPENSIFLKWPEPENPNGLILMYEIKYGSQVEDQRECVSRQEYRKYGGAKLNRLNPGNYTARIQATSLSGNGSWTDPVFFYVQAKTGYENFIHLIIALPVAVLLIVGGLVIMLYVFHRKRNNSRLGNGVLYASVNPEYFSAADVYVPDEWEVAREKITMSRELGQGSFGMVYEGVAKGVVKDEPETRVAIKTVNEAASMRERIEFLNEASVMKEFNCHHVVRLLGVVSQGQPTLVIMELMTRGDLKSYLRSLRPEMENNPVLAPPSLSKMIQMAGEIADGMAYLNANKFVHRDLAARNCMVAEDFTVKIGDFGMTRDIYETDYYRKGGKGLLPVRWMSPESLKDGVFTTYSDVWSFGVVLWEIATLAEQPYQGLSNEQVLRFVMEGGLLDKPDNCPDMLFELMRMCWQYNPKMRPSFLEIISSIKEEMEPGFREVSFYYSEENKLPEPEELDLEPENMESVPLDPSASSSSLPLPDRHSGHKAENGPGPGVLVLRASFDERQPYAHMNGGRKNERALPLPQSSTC

[3] = system: IGF-1R-driven xenograft model; conditions: orally once daily; cited from earlier work
adrenocortical carcinoma = conditions: Phase 3 study; cited from earlier work
malignancies = conditions: Phase I trials; cited from earlier work
thyroid eye disease = conditions: cited from earlier work
Ba/F3-TEL-IGF-1R cells = test: CellTiter-Glo luminescent cell viability assay; type: cell-based; conditions: cellular IC50, Ba/F3-TEL-IGF-1R cells
Method: The CellTiter-Glo luminescent cell viability assay was used to determine the inhibitory activity of the compounds against IGF-1R in Ba/F3-TEL-IGF-1R cells. […] The IC50 data are designated within the following ranges: A: ≤1 μM, B: >1 μM to ≤10 μM, C: >10 μM to ≤20 μM

IGF-1R [4] = biological target: T1, IGF-1R; test: IGF-1R biochemical assay (ADP-Glo); conditions: read-out: IGF1R IC50
Method: The inhibitory activity against IGF-1R was measured using ADP-Glo assay. The percent (%) inhibition at each concentration of compound is calculated based on and relative to the luminescence signal in the Max and Min control wells contained within each assay plate. The Max control wells contain enzyme and substrate as 0% inhibition, and the Min control wells only contain substrate without enzyme as 100% inhibition. The concentrations and % inhibition values for tested compounds are plotted and the concentration of compound required for 50% inhibition (IC50) is determined with a four-parameter logistic dose response equation.
Table 3 provides IC50 data of representative compounds against IGF-1R using ADP-Glo assay. The IC50 data are designated within the following ranges: A: ≤0.10 μM, B: >0.10 μM to ≤1 μM, C: >1 μM to ≤20 μM

| IC50 (Ba/F3-TEL-IGF-1R cells) | IC50 (IGF-1R [4]) | Compound | other results |
| --- | --- | --- | --- |
|  |  | ganitumab | survival rates [1]: largely ineffective at improving survival rates |
|  |  | C[C@]1(O)C[C@@H](c2nc(-c3ccc4ccc(-c5ccccc5)nc4c3)c3c(N)nccn32)C1 [OSI-906, Linsitinib] | in vitro antiproliferative effects (tumor cell lines): in vitro antiproliferative effects; inhibition of autophosphorylation of human IGF-1R (IGF-1R [2]): potently and selectively inhibits autophosphorylation; in vivo anti-tumor efficacy [3]: robust in vivo anti-tumor efficacy; overall survival (adrenocortical carcinoma): did not increase overall survival |
|  |  | teprotumumab | effectiveness in treating malignancies (malignancies): little effectiveness; inflammation in thyroid eye disease (thyroid eye disease): decrease inflammation |
| ≤ 1000 nM | ≤ 100 nM | COc1cc(-c2ccccc2F)nc2cc(-c3nn([C@H]4C[C@@](C)(O)C4)c(N)c3C(N)=O)ccc12 [Example C046, 5-amino-3-(2-(2-fluorophenyl)-4-methoxyquinolin-7-yl)-1-((1s,3s)-3-hydroxy-3-methylcyclobutyl)-1H-pyrazole-4-carboxamide] |  |
| ≤ 1000 nM | ≤ 100 nM | CCOc1cc(-c2ccccc2)nc2c(F)c(-c3nn([C@H]4C[C@@](C)(O)C4)c(N)c3C(N)=O)ccc12 [Example C033, 5-amino-3-(4-ethoxy-8-fluoro-2-phenylquinolin-7-yl)-1-((1s,3s)-3-hydroxy-3-methylcyclobutyl)-1H-pyrazole-4-carboxamide] |  |
| ≤ 1000 nM | ≤ 100 nM | NC(=O)c1c(-c2ccc3ccc(-c4ccccc4)nc3c2)nn([C@H]2C[C@@H](CN3CCOCC3)C2)c1N [Example C012, 5-amino-1-((1s,3s)-3-(morpholinomethyl)cyclobutyl)-3-(2-phenylquinolin-7-yl)-1H-pyrazole-4-carboxamide] |  |
| ≤ 1000 nM | ≤ 100 nM | COc1cc(-c2ccccc2)nc2c(F)c(-c3nn([C@H]4C[C@](C)(O)C4)c(N)c3C(N)=O)ccc12 [Example C045, 5-amino-3-(8-fluoro-4-methoxy-2-phenylquinolin-7-yl)-1-((lr,3r)-3-hydroxy-3-methylcyclobutyl)-1H-pyrazole-4-carboxamide] |  |
| ≤ 1000 nM | ≤ 100 nM | CCOc1cc(-c2ccccc2)nc2cc(-c3nn([C@H]4C[C@@](C)(O)C4)c(N)c3C(N)=O)ccc12 [Example C036, 5-amino-3-(4-ethoxy-2-phenylquinolin-7-yl)-1-((1s,3s)-3-hydroxy-3-methylcyclobutyl)-1H-pyrazole-4-carboxamide] |  |
| ≤ 1000 nM | ≤ 100 nM | COc1cc(-c2ccccc2)nc2cc(-c3nn([C@H]4C[C@@](C)(O)C4)c(N)c3C(N)=O)c(F)cc12 [Example C051, 5-amino-3-(6-fluoro-4-methoxy-2-phenylquinolin-7-yl)-1-((1s,3s)-3-hydroxy-3-methylcyclobutyl)-1H-pyrazole-4-carboxamide] |  |
| ≤ 1000 nM | ≤ 100 nM | COc1cc(-c2cccc(F)c2)nc2cc(-c3nn([C@H]4C[C@@](C)(O)C4)c(N)c3C(N)=O)ccc12 [Example C048, 5-amino-3-(2-(3-fluorophenyl)-4-methoxyquinolin-7-yl)-1-((1s,3s)-3-hydroxy-3-methylcyclobutyl)-1H-pyrazole-4-carboxamide] |  |
| ≤ 1000 nM | ≤ 100 nM | COc1cc(-c2ccccc2)nc2c(F)c(-c3nn([C@H]4C[C@@](C)(O)C4)c(N)c3C(N)=O)ccc12 [Example C034, 5-amino-3-(8-fluoro-4-methoxy-2-phenylquinolin-7-yl)-1-((1s,3s)-3-hydroxy-3-methylcyclobutyl)-1H-pyrazole-4-carboxamide] |  |
| ≤ 1000 nM | ≤ 100 nM | C[C@]1(O)C[C@@H](n2nc(-c3ccc4ccc(-c5ccccc5)nc4c3)c(C(N)=O)c2N)C1 [Example C005, 5-amino-1-((1s,3s)-3-hydroxy-3-methylcyclobutyl)-3-(2-phenylquinolin-7-yl)-1H-pyrazole-4-carboxamide] |  |
| ≤ 1000 nM | ≤ 100 nM | NC(=O)c1c(-c2ccc3ccc(-c4ccccc4)nc3c2)nn([C@H]2C[C@H](CN3CCOCC3)C2)c1N [Example C013, 5-amino-1-((1r,3r)-3-(morpholinomethyl)cyclobutyl)-3-(2-phenylquinolin-7-yl)-1H-pyrazole-4-carboxamide] |  |
| ≤ 1000 nM | ≤ 100 nM | COc1cc(-c2ccccc2)nc2cc(-c3nn([C@H]4C[C@@](C)(O)C4)c(N)c3C(N)=O)ccc12 [Example C032, 5-amino-1-((1s,3s)-3-hydroxy-3-methylcyclobutyl)-3-(4-methoxy-2-phenylquinolin-7-yl)-1H-pyrazole-4-carboxamide] |  |
| ≤ 1000 nM | ≤ 100 nM | COc1cc(-c2ccccc2F)nc2c(F)c(-c3nn([C@H]4C[C@@](C)(O)C4)c(N)c3C(N)=O)ccc12 [Example C035, 5-amino-3-(8-fluoro-2-(2-fluorophenyl)-4-methoxyquinolin-7-yl)-1-((1s,3s)-3-hydroxy-3-methylcyclobutyl)-1H-pyrazole-4-carboxamide] |  |
| ≤ 1000 nM | ≤ 100 nM | COc1c(F)c(-c2ccccc2)nc2c(F)c(-c3nn([C@H]4C[C@@](C)(O)C4)c(N)c3C(N)=O)ccc12 [Example C062, 5-amino-3-(3,8-difluoro-4-methoxy-2-phenylquinolin-7-yl)-1-((1s,3s)-3-hydroxy-3-methylcyclobutyl)-1H-pyrazole-4-carboxamide] |  |
